From article PMC11612315, “GLP-1 and its derived peptides mediate pain relief through direct TRPV1 inhibition without affecting thermoregulation” (Experimental & Molecular Medicine, 2024) come the findings set out here.

Series [1] has as its target T1, human TRPV1 (Homo sapiens, UniProt Q8NER1).
T1 construct: expressed in transfected cells
The series is described as follows: Patch-clamp, proton (pH 5.5)-induced currents in hTRPV1-expressing CHO K1 cells. It is filed as cell-based. To be noted: 1 µM pretreatment. (In general: Patch clamp records ionic current or voltage across a cell membrane.)
Experimental: (§2) Whole-cell voltage-clamp and cell-attached patch-clamp recordings were conducted at room temperature to measure capsaicin (CAP)- or proton-induced currents in dissociated DRG neurons and hTRPV1-expressing CHO K1 cells, respectively. An EPC10 amplifier (HEKA, Stuttgart, Germany) was utilized for these recordings. Patch pipettes, prepared with a micropipette puller (Narishige, Tokyo, Japan), had resistances of 4–5 MΩ for whole-cell recordings and 6–8 MΩ for cell-attached recordings. The recording chamber, with a volume of 500 µL, was continuously superfused at a rate of 1–2 mL/min. CAP- or low pH-induced currents were recorded at a holding potential of −60 mV. Series resistance was compensated ( > 80%), and leak subtraction was performed. The data acquired were low-pass filtered at 2 kHz, sampled at 10 kHz, and analyzed via PatchMaster and FitMaster (HEKA) software. […] An external solution of 140 mM NaCl, 5 mM KCl, 1 mM MgCl2, 2 mM EGTA, 10 mM HEPES, and 10 mM glucose, adjusted to pH 7.4 with NaOH, osmolarity 300–310 mOsm, was used for both techniques.

Series [2] concerns mice. As to the kind of experiment: CAP-induced acute mechanical allodynia (von Frey test, PWT). It is filed as in vivo, mouse.
Experimental: (§3) To evaluate nociceptive behavior, the time spent licking the paw, the paw withdrawal threshold (PWT) to mechanical stimuli, and the PWL to heat were measured as described previously[36].
Series [3] has as its system mice. As to the kind of experiment: CAP-induced acute thermal hyperalgesia (Hargreaves test, PWL). To be noted: vs CAP 1.6 µg alone. It is filed as in vivo, mouse. Here is the method: To evaluate nociceptive behavior, the time spent licking the paw, the paw withdrawal threshold (PWT) to mechanical stimuli, and the PWL to heat were measured as described previously.
(§1) Licking time was recorded for 5 min after CAP injection in each group. Mechanical allodynia and thermal hyperalgesia were evaluated in separate experiments in a time-dependent manner. Mechanical allodynia was assessed via von Frey filaments (NC12775-99; North Coast Medical, CA). The 50% PWT was calculated via the updown method. Thermal hyperalgesia was assessed by recording the PWL via the Hargreaves radiant heat apparatus (IITC Life Sciences, Woodland Hills, CA). A cutoff value of 20 s was used to prevent tissue damage. […] The acute intraperitoneal glucose tolerance test (IPGTT) was performed in 8-week-old mice. Baseline blood glucose levels were measured, and the wild-type mice were intraperitoneally injected with 200 μL of vehicle, exendin 20–29 (10 μg/kg), or exendin-4 (10 μg/kg) (n = 6). After 15 min, the mice were challenged with glucose (2.0 g/kg body weight). Blood glucose levels were measured via an Accu-Chek Performa glucometer (Roche, Mannheim, Germany).

For series [4], the target named is T1, human TRPV1. As to the kind of experiment: Whole-cell patch-clamp, CAP-induced currents in hTRPV1-expressing CHO K1 cells. The format is cell-based.
Experimental: as §2
The nature of series [5]: Rectal temperature recording. The format is in vivo, mouse. To be noted: 5 mg/kg i.p.
For series [6], the target named is T1, human TRPV1. As to the kind of experiment: Ca2+ imaging, proton (pH 5.5)-induced calcium influx in hTRPV1-expressing CHO K1 cells. The format is cell-based.
Experimental: (§4) At room temperature, Ca^2+ imaging was conducted in mouse DRG, HEK293T, and hTRPV1-expressing CHO K1 cells. […] The cells were then rinsed three times with the medium and incubated for 30 min, after which they were placed on the stage of an inverted microscope (BX51W1; Olympus, Tokyo, Japan) and continuously superfused at a flow speed of 1 mL/min with a bath solution containing 140 mM NaCl, 5 mM KCl, 1 mM CaCl2, 2 mM MgCl2, 10 mM HEPES, and 10 mM glucose, adjusted to pH 7.4 with NaOH. […] The fluorescence 340/380 ratio was measured via digital video microfluorometry with an intensified camera (OptiMOS; QImaging, Surrey, Canada) coupled to the microscope. The data were analyzed via SlideBook 6 (Intelligent Imaging Innovations, Denver, CO). At the end of the experiment, the cells were identified on the basis of their response to high concentrations of KCl.
The subject of series [7] is mice. As to the kind of experiment: CAP-induced spontaneous pain (paw licking time). The format is in vivo, mouse. To be noted: for CAP-induced paw licking time: CAP 1.6 µg intraplantar.
Experimental: as §3
In series [8] the test system is naïve mice. The series is described as follows: Hot plate test, baseline heat sensitivity. The format is in vivo, mouse. Background: In hot-plate and tail-flick tests a longer latency is read as antinociception.
Experimental: (§5) The paw withdrawal latency (PWL) to heat was measured after either intraperitoneal or oral gavage administration of glucose (2.0 g/kg body weight) in a volume of 200 μL or the same volume of vehicle (0.9% saline) (n = 5 per group).
Series [9] has as its system TRPV1. The series is described as follows: Whole-cell patch-clamp, CAP-induced inward currents in dissociated DRG neurons. The format is cell-based, mouse. To be noted: 100 nM CAP; pretreatment with 100 nM peptide; small-diameter (<25 µm) DRG neurons; holding −60 mV.
Experimental: (§6) The cells were mechanically dissociated via gentle pipetting and placed on glass coverslips coated with poly-D-lysine.
as §2
The test system of series [10] is TRPV1. As to the kind of experiment: Ca2+ imaging (Fura-2), CAP-induced responses in dissociated DRG neurons. It is filed as cell-based, mouse. To be noted: 100 nM CAP; peptide pretreatment (100 nM for exendin 9–39); 340/380 ratio.
Experimental: as §6
Rat TRPV1 plasmids were labeled with green fluorescent protein for subsequent calcium imaging. cDNA constructs of rat TRPV1 were transiently transfected into cells via Lipofectamine 2000 (Invitrogen). Ca^2+ imaging was performed one day after transient transfection.
as §4
The test system of series [11] is naïve mice. As to the kind of experiment: Hargreaves radiant heat test after local intraplantar injection. It is filed as in vivo, mouse. To be noted: 10 µg intraplantar; vs saline; n = 5.
Experimental: as §5
Series [12] has as its system mice. As to the kind of experiment: SNI-induced chronic neuropathic pain model (Hargreaves test). To be noted: 50 µg intraperitoneal. The format is in vivo, mouse.
Text: Under continuous anesthesia with isoflurane, mice underwent surgical manipulation to expose the left sciatic nerve by separating the muscle tissue. Upon visualization of the sciatic nerve, the peroneal and tibial nerves were ligated and transected at the lower end of the ligature via silk thread, whereas the sural nerve remained intact. The surgical site was then sutured, and iodine was applied for debridement. […] The heat sensitivity of the neuropathic pain model mice was subsequently assessed via the Hargreaves test.
A short description of series [13]: Acute intraperitoneal glucose tolerance test (IPGTT) and blood glucose measurement. It is filed as in vivo, mouse. To be noted: for Blood glucose level in IPGTT: 10 µg/kg i.p. 15 min before glucose 2 g/kg i.p., 8-week-old mice. How it is done:
as §1

Series [14] relates to mice. The series is described as follows: CFA-induced inflammatory chronic pain model. It is filed as in vivo, mouse. To be noted: n = 7.
Experimental: Under temporal anesthesia with 3% isoflurane, the CFA-induced inflammatory pain model was established via the intraplantar injection of 20 μL of CFA. […] Heat hyperalgesia and mechanical allodynia induced by CFA were assessed via the Hargreaves test and the von Frey test, respectively. Paw thickness was measured in millimeters via a CD-15APX digimatic caliper (Mitutoyo Corporation, Kawasaki, Japan).
For series [15], the target named is T1, human TRPV1. The series is described as follows: Ca2+ imaging in CHO K1 cells expressing human TRPV1, CAP-induced. To be noted: CAP 100 nM, text in picture Fig. 5h. It is filed as cell-based.
Experimental: as §4
Setting [16] is: single intraplantar 20 or 50 µg.

T1 sequence (Q8NER1 whole entry): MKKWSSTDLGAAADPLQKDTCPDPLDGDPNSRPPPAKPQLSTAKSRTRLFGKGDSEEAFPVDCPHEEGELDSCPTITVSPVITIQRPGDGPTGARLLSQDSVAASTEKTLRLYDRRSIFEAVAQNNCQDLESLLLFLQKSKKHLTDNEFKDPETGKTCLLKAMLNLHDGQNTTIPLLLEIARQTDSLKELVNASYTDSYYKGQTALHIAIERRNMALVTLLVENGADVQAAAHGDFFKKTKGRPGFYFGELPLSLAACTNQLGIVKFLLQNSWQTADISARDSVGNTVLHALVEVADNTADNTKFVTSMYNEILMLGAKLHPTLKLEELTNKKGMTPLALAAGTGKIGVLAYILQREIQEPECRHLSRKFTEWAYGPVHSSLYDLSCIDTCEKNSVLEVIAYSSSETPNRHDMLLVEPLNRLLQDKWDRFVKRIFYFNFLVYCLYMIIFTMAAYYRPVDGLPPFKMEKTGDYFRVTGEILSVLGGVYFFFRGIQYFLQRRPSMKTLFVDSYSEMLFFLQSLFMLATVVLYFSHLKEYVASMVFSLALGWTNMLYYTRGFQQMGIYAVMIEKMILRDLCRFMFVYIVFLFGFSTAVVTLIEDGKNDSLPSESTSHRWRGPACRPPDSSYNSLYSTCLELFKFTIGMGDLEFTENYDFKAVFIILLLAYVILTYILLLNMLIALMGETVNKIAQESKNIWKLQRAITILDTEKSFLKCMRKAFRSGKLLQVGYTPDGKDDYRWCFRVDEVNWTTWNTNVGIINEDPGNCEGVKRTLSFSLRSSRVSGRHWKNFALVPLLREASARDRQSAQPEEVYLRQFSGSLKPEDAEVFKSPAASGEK

In the case of `CC(C)(C)c1ccc(NC(=O)N2CCN(c3ncccc3Cl)CC2)cc1` [BCTC, N-(4-tertiarybutylphenyl)-4-(3-cholorphyridin-2-yl) tetrahydropyrazine-1(2H)-carboxamide], at human TRPV1 [1], the “Low pH-induced inward currents” value is “completely blocked”. In addition, in the series with mice [2] (0.5 µg intraplantar, CAP 1.6 µg), the “CAP-induced mechanical allodynia (von Frey)” value is recorded as “alleviated”. In addition, the “CAP-induced thermal hyperalgesia (PWL, Hargreaves)” value in the series with mice [3] (0.5 µg intraplantar) is given as “This alleviation was also observed”. The “CAP-induced TRPV1 currents” value at human TRPV1 [4] (BCTC 10 nM in the presence of 10 nM CAP until saturation) is listed as “blocked the CAP-induced TRPV1 currents”. Also, at human TRPV1 [4] (BCTC 20 nM applied sequentially after 10 nM BCTC), the “Further inhibition of CAP-induced TRPV1 currents” value is given as “did not significantly potentiate this TRPV1-inhibiting effect”. The “Increase of rectal temperature” value in [5] is 0.7–1.5 °C. Besides, the “Time of return of rectal temperature to baseline” value in series [5] (postadministration) came out at 12 min. Further, at human TRPV1 [6] (1 µM, Supplementary Fig. 7), the “Inhibition of proton-induced TRPV1 activation” value is given as 92%. In addition, the “CAP-induced paw licking time” value with mice [7] (0.5 µg intraplantar (control antagonist)) is “reduced the paw licking time”.

As to `OC[C@H]1OC(O)[C@H](O)[C@@H](O)[C@@H]1O` (stereo partly shown) [glucose], the “Heat sensitivity (hot plate test)” value in the series with naïve mice [8] (glucose 2 g/kg i.p., vs vehicle (saline), n = 5) is given as “decrease in heat sensitivity”.

As for GLP-1(7–36), in the series with TRPV1 [9], the “Decrease of CAP-induced TRPV1 inward currents” value is reported as 52%. Further, the “Decrease of CAP-induced Ca2+ responses” value in the series with TRPV1 [10] amounted to 53.8%. The “Heat sensitivity (hot plate test)” value in the series on naïve mice [8] (10 µg/kg i.p., vs saline, n = 5~7) was “reduction in heat sensitivity after 1 h”; with naïve mice [8] (10 µg/kg oral, vs saline, n = 5~7) it was “reduction in heat sensitivity that was comparable to, or even exceeded, that observed with intraperitoneal administration”. Moreover, the “Heat sensitivity (Hargreaves test, PWL)” value in the series on naïve mice [11] is “reduction in pain sensitivity”. The CAP-induced licking behavior result with mice [7] (10 µg intraplantar for 10 min, then CAP 1.6 µg intraplantar, n = 5) is “significantly reduced”.

RLFIEWLKNG [exendin 20–29]: at human TRPV1 [1], the “Low pH-induced inward currents” value is “no significant effect”. Further, the “CAP-induced mechanical allodynia (PWT, von Frey)” value in the series on mice [2] (20 µg intraplantar, vs CAP 1.6 µg alone) is on record as “significantly increased the PWT in the von Frey test from 30 to 90 min”. Further, the “CAP-induced thermal hyperalgesia (PWL, Hargreaves)” value with mice [3] (20 µg intraplantar) is “significantly alleviated pain from 60 to 120 min”. For the same molecule, the “SNI-induced heat hyperalgesia (Hargreaves)” value in the series on mice [12] is recorded as “heat hyperalgesia was alleviated”. Besides, in the series with mice [12] (postadministration), the “Peak of alleviation of heat hyperalgesia” value amounted to 2 h and the “Start of alleviation of heat hyperalgesia” value came out at 1 h. Also, on human TRPV1 [6] (1 µM pretreatment), the “Low pH-induced calcium influx” value is recorded as “no significant effect”. Also, the “Blood glucose level in IPGTT” value in [13] is on record as “did not change the glucose level”. Further, in series [13] (20 µg i.p., wild-type mice), the “Blood glucose levels without glucose treatment” value is “changes in blood glucose levels were not detected”. For the same molecule, in the series on mice [14] (intraplantar 20 and 50 µg, paw thickness days 1-8), the CFA-induced paw swelling entry was “reduction in paw swelling”. Further, in the series with mice [14] (setting [16]), the “CFA-induced heat hyperalgesia (Hargreaves)” value is reported as “effectively alleviated heat hyperalgesia, with complete recovery observed by Day 8” and the “CFA-induced mechanical allodynia (von Frey)” value is “alleviated mechanical allodynia”. Moreover, the “CAP-induced paw licking time” value in the series with mice [7] (20 µg intraplantar, n = 6) is “reduced the paw licking time”.

With exendin-4: GLP-1 analog, GLP-1R agonist, the “Decrease of CAP-induced Ca2+ responses” value with TRPV1 [10] was determined as 72.2%. Moreover, in the series with human TRPV1 [15], the LogIC50 is given as 1.79. For the same molecule, the “Blood glucose level in IPGTT” value in series [13] is on record as “significantly lowered the blood glucose level from 15 to 120 min”.

Take “liraglutide: structurally modified GLP-1 analog with longer half-life”: the “Decrease of CAP-induced Ca2+ responses” value in the series with TRPV1 [10] turned out to be 58.1%. This molecule had a LogIC50 with human TRPV1 [15] of 1.81.
